Results: patent publication EP4553077A1 (Kinoteck Therapeutics Co., Ltd, priority 2022, dated 2024)

target: Ba/F3-TEL-FGFR1 (Homo sapiens, UniProt P11362+P41212); experiment: Cell viability (proliferation inhibition) of Ba/F3 cells, CellTiter Glo; conditions: read-out: Ba/F3 cell FGFR1 (IC50 nM), 72 h
Sequence (P11362 478-767 limits assumed, one chain of several): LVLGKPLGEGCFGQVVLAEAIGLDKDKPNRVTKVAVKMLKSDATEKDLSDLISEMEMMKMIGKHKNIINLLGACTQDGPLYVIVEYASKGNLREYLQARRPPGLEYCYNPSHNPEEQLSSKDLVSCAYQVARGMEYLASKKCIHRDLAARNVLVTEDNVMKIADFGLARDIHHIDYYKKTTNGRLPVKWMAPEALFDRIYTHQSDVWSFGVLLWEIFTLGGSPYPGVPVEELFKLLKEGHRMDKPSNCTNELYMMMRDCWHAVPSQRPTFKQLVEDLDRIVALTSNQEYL

Row | Molecule | IC50 [nM]
1 | C=C(C)C(=O)Nc1ccc(-c2c(-c3ccc(N=S4(=O)CCCC4)cc3)c3c(N)ncnc3n2C)cc1 [Compound 31] | 2090
2 | C=C(C)C(=O)Nc1ccc(-c2c(-c3ccc(N=S4(=O)CCCC4)c(F)c3)c3c(N)ncnc3n2C)c(C(F)F)c1 [Compound 59, N-(4-(4-amino-5-(3-fluoro-4-((1-oxotetrahydro-1 λ^6-thiophene-1-ylidene)amino)phenyl) -7-methyl-7H-pyrrolo [2,3-d]pyrimidin-6-yl) -3-(difluoromethyl)phenyl) methacrylamide] | 1320
3 | C=C(C)C(=O)Nc1ccc(-c2c(-c3ccc(N=S4(=O)CCC4)c(F)c3)c3c(N)ncnc3n2C)c(C)c1 [Compound 70] | 775
4 | C=C(C)C(=O)Nc1ccc(-c2c(-c3ccc(N=S4(=O)CCC4)c(F)c3)c3c(N)ncnc3n2C)c(F)c1 [Compound 75] | 701
5 | C=C(C)C(=O)Nc1ccc(-c2c(-c3cc(F)c(N=S4(=O)CCC4)cc3F)c3c(N)ncnc3n2C)c(F)c1 [Compound 77, N-(4-(4-amino-5-(2,5-difluoro-4-((1-oxo-1λ^6-thiocyclobutan-1-ylidene)amino)phenyl) -7-methyl-7H-pyrrolo [2,3-d]pyrimidin-6-yl) -3-fluorophenyl) methacrylamide] | 884
6 | [2H]C([2H])([2H])n1c(-c2ccc(NC(=O)C(=C)C)cc2F)c(-c2ccc(N=S3(=O)CCCC3)c(Cl)c2)c2c(N)ncnc21 [Compound 82, N-(4-(4-amino-5-(3-chloro-4-((1-oxidetetrahydro-1λ^6-thiophene-1-ylidene)amino)phenyl)-7-(methyl-d3)-7H-pyrrolo[2,3-d]pyrimidin-6-yl)-3-fluorophenyl) methacrylamide] | 484

target: Ba/F3-TEL-FGFR2 (Homo sapiens, UniProt P21802+P41212); experiment: as above; conditions: read-out: Ba/F3 cell FGFR2 (IC50 nM), 72 h
Sequence (P21802 481-770 limits assumed, one chain of several): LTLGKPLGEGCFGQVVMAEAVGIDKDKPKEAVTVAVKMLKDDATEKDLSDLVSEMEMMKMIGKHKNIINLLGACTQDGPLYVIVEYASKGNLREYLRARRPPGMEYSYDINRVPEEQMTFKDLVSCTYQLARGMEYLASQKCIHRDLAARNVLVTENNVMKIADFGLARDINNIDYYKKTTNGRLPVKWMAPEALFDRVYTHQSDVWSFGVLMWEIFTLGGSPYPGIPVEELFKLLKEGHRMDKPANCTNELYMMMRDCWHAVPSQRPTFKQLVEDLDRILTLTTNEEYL

Row | Molecule | IC50 [nM]
7 | C=C(C)C(=O)Nc1ccc(-c2c(-c3ccc(N=S4(=O)CCCC4)cc3)c3c(N)ncnc3n2C)cc1 [Compound 31] | 8.3
8 | C=C(C)C(=O)Nc1ccc(-c2c(-c3ccc(N=S4(=O)CCCC4)c(F)c3)c3c(N)ncnc3n2C)c(C(F)F)c1 [Compound 59, N-(4-(4-amino-5-(3-fluoro-4-((1-oxotetrahydro-1 λ^6-thiophene-1-ylidene)amino)phenyl) -7-methyl-7H-pyrrolo [2,3-d]pyrimidin-6-yl) -3-(difluoromethyl)phenyl) methacrylamide] | 7.8
9 | CN(C)C/C=C/C(=O)N1CC=C(c2c(-c3ccc(N=S4(=O)CCCCC4)cc3)c3c(N)ncnc3n2C)CC1 [Compound 67, (E)-1-(4-(4-amino-7-methyl-5-(4-((1-oxotetrahydro-2H-1λ^6-thiopyran-1-ylidene)amino)phenyl) -7H-pyrrolo [2,3-d]pyrimidin-6-yl) -3,6-dihydropyridine-1 (2H)-yl) -4-(dimethylamino) but-2-enyl-1-one] | 105
10 | C=C(C)C(=O)Nc1ccc(-c2c(-c3ccc(N=S4(=O)CCCCC4)c(F)c3)c3c(N)ncnc3n2C)cc1 [Compound 69, N-(4-(4-amino-5-(3-fluoro-4-((1-oxotetrahydro-2H-1λ^6-thiopyran-1-ylidene)amino)phenyl) -7-methyl-7H-pyrrolo [2,3-d]pyrimidin-6-yl)phenyl) methacrylamide] | 11.4
11 | C=C(C)C(=O)Nc1ccc(-c2c(-c3ccc(N=S4(=O)CCC4)c(F)c3)c3c(N)ncnc3n2C)c(C)c1 [Compound 70] | 2.7
12 | C=C(C)C(=O)Nc1ccc(-c2c(-c3ccc(N=S(=O)(NCC)C(F)(F)F)c(F)c3)c3c(N)ncnc3n2C)cc1 (stereo not shown) [Compound 71, N-(4-(4-amino-5-(4-(((ethylamino)(oxo)(trifluoromethyl)-1 λ^6-sulfaneylidene)amino)-3-fluorophenyl)-7-methyl-7H-pyrrolo[2,3-d]pyrimidin-6-yl)phenyl) methacrylamide] | 2.5
13 | C=C(C)C(=O)Nc1ccc(-c2c(-c3ccc(N=S4(=O)CC5(CC5)C4)cc3)c3c(N)ncnc3n2C)c(F)c1 [Compound 72] | 2.2
14 | C=C(C)C(=O)Nc1ccc(-c2c(-c3ccc(N=S(=O)(CC)CC)cc3)c3c(N)ncnc3n2C)c(C(F)F)c1 [Compound 73] | 11.1
15 | C=C(C)C(=O)Nc1ccc(-c2c(-c3ccc(N=S4(=O)CCC4)c(F)c3)c3c(N)ncnc3n2C)c(F)c1 [Compound 75] | 0.8
16 | C=C(C)C(=O)Nc1ccc(-c2c(-c3cc(F)c(N=S(=O)(CC)CC)cc3F)c3c(N)ncnc3n2C)c(F)c1 [Compound 76] | 6.1
17 | C=C(C)C(=O)Nc1ccc(-c2c(-c3cc(F)c(N=S4(=O)CCC4)cc3F)c3c(N)ncnc3n2C)c(F)c1 [Compound 77, N-(4-(4-amino-5-(2,5-difluoro-4-((1-oxo-1λ^6-thiocyclobutan-1-ylidene)amino)phenyl) -7-methyl-7H-pyrrolo [2,3-d]pyrimidin-6-yl) -3-fluorophenyl) methacrylamide] | 4.7
18 | C=C(C)C(=O)Nc1ccc(-c2c(-c3ccc(N=S4(=O)CCCC4)cc3)c3c(N)ncnc3n2CCN(C)C)c(F)c1 [Compound 78, N-(4-(4-amino-7-(2-(dimethylamino)ethyl) -5-(4-((1-hydroperoxide-1λ^6-thiophene-1-ylidene)amino)phenyl) -7H-pyrrolo [2,3-d]pyrimidin-6-yl) -3-fluorophenyl) methacrylamide] | 585
19 | C=C(C)C(=O)Nc1ccc(-c2c(-c3ccc(N=S4(=O)CCCC4)cc3)c3c(N)ncnc3n2CC(C)(C)O)c(F)c1 [Compound 79, N-(4-(4-amino-7-(2-hydroxy-2-methylpropyl)-5-(4-((1-hydroperoxid-1λ^6-thiophene-1-ylidene)amino)phenyl) -7H-pyrrolo [2,3-d]pyrimidin-6-yl) -3-fluorophenyl) methacrylamide] | 61.1
20 | C=C(C)C(=O)Nc1ccc(-c2c(-c3ccc(N=S4(=O)CCCC4)c(OC)c3)c3c(N)ncnc3n2C)c(F)c1 [Compound 80, N-(4-(4-amino-5-(3-methoxy-4-((1-hydroperoxid-1λ^6-thiophene-1-ylidene)amino)phenyl)-7-methyl-7H-pyrrolo[2,3-d]pyrimidin-6-yl)-3-fluorophenyl) methacrylamide] | 46
21 | C=C(C)C(=O)Nc1ccc(-c2c(-c3ccc(N=S4(=O)CCCC4)c(OC)c3)c3c(N)ncnc3n2C)c(Cl)c1 [Compound 81, N-(4-(4-amino-5-(3-methoxy-4-((1-hydroperoxid-1 λ^6-thiophene-1-ylidene)amino)phenyl) -7-methyl-7H-pyrrolo [2,3-d]pyrimidin-6-yl) -3-chlorophenyl) methacrylamide] | 18.1
22 | [2H]C([2H])([2H])n1c(-c2ccc(NC(=O)C(=C)C)cc2F)c(-c2ccc(N=S3(=O)CCCC3)c(Cl)c2)c2c(N)ncnc21 [Compound 82, N-(4-(4-amino-5-(3-chloro-4-((1-oxidetetrahydro-1λ^6-thiophene-1-ylidene)amino)phenyl)-7-(methyl-d3)-7H-pyrrolo[2,3-d]pyrimidin-6-yl)-3-fluorophenyl) methacrylamide] | 0.8
23 | C=C(C)C(=O)Nc1ccc(-c2c(-c3ccc(N=S(=O)(CC)CC)cc3F)c3c(N)ncnc3n2C)c(F)c1 [Compound 85] | 907

Row | Molecule | IC50 [nM]
24 | C=C(C)C(=O)Nc1ccc(-c2c(-c3ccc(N=S(=O)(CC)CC)cc3)c3c(N)ncnc3n2CCOC)c(F)c1 [Compound 86] | 67.4
25 | [2H]C([2H])([2H])n1c(-c2cc(C)c(NC(=O)C(=C)C)cc2F)c(-c2ccc(N=S3(=O)CCCC3)c(F)c2)c2c(N)ncnc21 [Compound 91, N-(4-(4-amino-5-(3-fluoro-4-((1-tetrahydro-1λ^6-thiophene-1-ylidene)amino)phenyl) -7-(methyl-d3) -7H-pyrrolo [2,3-d]pyrimidin-6-yl) -5-fluoro-2-methylphenyl) methacrylamide] | 23.9
26 | C=C(CN(C)C)C(=O)Nc1ccc(-c2c(-c3ccc(N=S4(=O)CCCC4)c(F)c3)c3c(N)ncnc3n2C)cc1 [Compound 92] | 0.8
27 | C=C(C)C(=O)Nc1ccc(-c2c(-c3ccc(N=S(=O)(C4CC4)C4CC4)cc3)c3c(N)ncnc3n2C)cc1 [Compound 93, N-(4-(4-amino-5-(4-((dicyclopropyl (oxo)-λ^6-sulfaneylidene)amino)phenyl)-7-methyl-7H-pyrrolo [2,3-d]pyrimidin-6-yl)phenyl) methacrylamide] | 31.7
28 | [2H]C([2H])([2H])n1c(-c2ccc(NC(=O)C(=C)C)cc2F)c(-c2ccc(N=S(C)(=O)c3ccccc3)c(F)c2)c2c(N)ncnc21 (stereo not shown) [Compound 96, N-(4-(4-amino-5-(3-fluoro-4-((methyl (oxo) (phenyl) - λ^6-sulfaneylidene)amino)phenyl) -7-(methyl-d3) -7H-pyrrolo [2,3-d]pyrimidin-6-yl) -3-fluorophenyl) methacrylamide] | 29.8
29 | C=C(C)C(=O)Nc1ccc(-c2c(-c3ccc(N=S4(=O)CCC4)c(F)c3)c3c(N)ncnc3n2C)c(C)c1 [Compound 99] | 2.7
30 | C=C(C)C(=O)Nc1ccc(-c2c(-c3ccc(N=S(=O)(CC)CC)c(F)c3)c3c(N)ncnc3n2C)c(C)c1 [Compound 101] | 4.7
31 | C=C(C)C(=O)Nc1ccc(-c2c(-c3ccc(N=S(=O)(CC)CC)cc3)c3c(N)ncnc3n2CC(F)(F)F)c(F)c1 [Compound 103] | 13.9
32 | C=C(C)C(=O)Nc1ccc(-c2c(-c3ccc(N=S4(=O)CCOCC4)cc3)c3c(N)ncnc3n2C)c(F)c1 [Compound 105] | 20.9
33 | C=C(C)C(=O)Nc1ccc(-c2c(-c3ccc(N=S4(=O)CC(C)(C)C4)c(F)c3)c3c(N)ncnc3n2C)c(F)c1 [Compound 106, N-(4-(4-amino-5-(4-((3,3-dimethyl-1-oxo-1 λ^6-thiocyclobutan-1-ylidene)amino) -3-fluorophenyl) -7-methyl-7H-pyrrolo [2,3-d]pyrimidin-6-yl) -3-fluorophenyl) methacrylamide] | 2.2
34 | [2H]C([2H])([2H])n1c(-c2ccc(NC(=O)C(=C)C)cc2F)c(-c2ccc(N=S3(=O)C=CC(C)(C)C3)cc2)c2c(N)ncnc21 (stereo not shown) [Compound 108, N-(4-(4-amino-5-(4-((3,3-dimethyl-1-oxo-1 λ^6-thiophene-1-ylidene)amino)phenyl) -7-(methyl-d3) -7H-pyrrolo [2,3-d]pyrimidin-6-yl) -3-fluorophenyl) methacrylamide] | 2.5
35 | C=CC(=O)Nc1ccc(-c2c(-c3ccc(N=S4(=O)CCCC4)cc3)c3c(N)ncnc3n2C)c(F)c1 [Compound 110] | 2
36 | C=C(F)C(=O)Nc1ccc(-c2c(-c3ccc(N=S4(=O)CCCC4)cc3)c3c(N)ncnc3n2C)c(F)c1 [Compound 111] | < 0.15
37 | CC#CC(=O)Nc1ccc(-c2c(-c3ccc(N=S4(=O)CCCC4)cc3)c3c(N)ncnc3n2C)c(F)c1 [Compound 112, N-(4-(4-amino-7-methyl-5-(4-((1-tetrahydro-1λ^6-thiophene-1-ylidene)amino)phenyl) -7H-pyrrolo [2,3-d]pyrimidin-6-yl) -3-fluorophenyl) but-2-ynamide] | 2
38 | [2H]c1cc(-c2c(-c3ccc(NC(=O)C(=C)C)cc3F)n(C)c3ncnc(N)c23)cc([2H])c1N=S1(=O)CCCC1 [Compound 113] | 1.8
39 | [2H]c1c([2H])c(-c2c(-c3ccc(NC(=O)C(=C)C)cc3F)n(C)c3ncnc(N)c23)c([2H])c([2H])c1N=S1(=O)CCCC1 [Compound 114, N-(4-(4-amino-7-methyl-5-(4-((1-oxidetetrahydro-1 λ^6-thiophene-1-ylidene)amino)phenyl-2,3,5,6-d4) -7H-pyrrolo [2,3-d]pyrimidin-6-yl) -3-fluorophenyl) methacrylamide] | 1.2
40 | N- (4- (4-amino-5- (4- (cyclopentyl (methyl) (oxo) - λ^6-sulfanylidene) amino) phenyl) -7-methyl-7H-pyrrole [2,3-d] pyrimidin-6-yl) -3-fluorophenyl) methacrylamide [Compound 49] | 12.8
